Measured values: paper PMC8138313, “Identification, Selection and Immune Assessment of Liver Stage CD8 T Cell Epitopes From Plasmodium falciparum” (Frontiers in Immunology, 2021)
Where a SMILES comes first, the peptide text is derived from it.

Legend:
Experiment in all cases: HLA class I binding assay (cell-free competition, fluorescence polarization)
HLA B*4402 = HLA B*4402 (Homo sapiens, UniProt P01889, A223V/A65T/A93T/A95T/D201E/D98Y/E176V/E187L/E204Q/E69K/G107R/H137Y/K202T/L105A/L119I/N104T/N87E/Q56L/Q94N/R106L/R155S/R180D/S101N/S121R/S35A/S48T/T118I/V36M/W191S/Y140D/Y91S)
HLA A*0201 = HLA A*0201 (Homo sapiens, UniProt P04439, D140Y/D185E/D98H/E176V/E277Q/G131W/G231S/I119V/I121R/I166T/I218V/L300P/L318F/N151K/N90K/P208A/P217A/Q86G/Q94H/R138H/R169H/T345S)
HLA A*2402 = HLA A*2402 (Homo sapiens, UniProt P04439, D101N/D140Y/D185E/E176V/E190D/F33S/G103R/G107R/I119L/I121M/I306V/K335N/L105A/L180Q/L300P/N151K/N90K/Q86E/Q94H/R106L/R138H/R89G/T104I/T345S/V100E/W191G/Y123F)
HLA A*0301 = HLA A*0301 (Homo sapiens, UniProt P04439)

| SMILES | IC50 (HLA B*4402) [µM] | further results |
| --- | --- | --- |
| CC[C@H](C)[C@H](NC(=O)[C@H](CC(C)C)NC(=O)[C@H](CC(=O)O)NC(=O)[C@H](CC(N)=O)NC(=O)[C@H](CCCNC(=N)N)NC(=O)[C@H](CO)NC(=O)[C@@H](NC(=O)[C@H](CCC(=O)O)NC(=O)[C@H](C)N)[C@@H](C)CC)C(=O)O (H-AEISRNDLI-OH) | 4.53 |  |
| CC[C@H](C)[C@H](NC(=O)[C@H](CCC(N)=O)NC(=O)[C@@H](NC(=O)[C@H](C)NC(=O)[C@H](CCCCN)NC(=O)[C@H](CC(C)C)NC(=O)[C@H](CC(N)=O)NC(=O)[C@H](CCC(=O)O)NC(=O)[C@@H](N)CC(=O)O)[C@@H](C)CC)C(=O)O (H-DENLKAIQI-OH) | 91.3 |  |
| CC(C)C[C@H](NC(=O)[C@H](CC(N)=O)NC(=O)[C@H](CCC(=O)O)NC(=O)[C@@H](N)CCC(=O)O)C(=O)N[C@@H](Cc1ccccc1)C(=O)N[C@@H](CCC(=O)O)C(=O)N[C@@H](Cc1c[nH]c2ccccc12)C(=O)N[C@@H](CO)C(=O)N[C@@H](CCCCN)C(=O)N[C@H](C(=O)O)[C@@H](C)O (H-EENLFEWSKT-OH; N-terminus assumed) | > 1000 |  |
| CC[C@H](C)[C@H](NC(=O)CNC(=O)[C@H](CO)NC(=O)[C@H](CC(N)=O)NC(=O)[C@H](CC(=O)O)NC(=O)[C@@H](N)Cc1ccccc1)C(=O)N[C@@H](CO)C(=O)N[C@@H](CC(C)C)C(=O)N[C@@H](CC(C)C)C(=O)O (H-FDNSGISLL-OH) | > 1000 | IC50 (HLA A*0201): 229 µM |
| CC[C@H](C)[C@H](N)C(=O)N[C@@H](CCC(=O)O)C(=O)N[C@@H](CC(N)=O)C(=O)N[C@@H](CC(N)=O)C(=O)N[C@@H](CC(C)C)C(=O)N[C@@H](Cc1ccc(O)cc1)C(=O)N[C@@H](CCC(=O)O)C(=O)N[C@@H](CCCNC(=N)N)C(=O)N[C@@H](CC(C)C)C(=O)O (H-IENNLYERL-OH) | 60.1 |  |
| CC[C@H](C)[C@H](NC(=O)[C@H](CCC(=O)O)NC(=O)[C@H](CCCCN)NC(=O)[C@H](CCC(=O)O)NC(=O)[C@H](CCC(=O)O)NC(=O)[C@@H](N)CCCCN)C(=O)N[C@@H](CC(N)=O)C(=O)N[C@@H](CC(=O)O)C(=O)N[C@@H](CCC(=O)O)C(=O)N[C@@H](Cc1ccc(O)cc1)C(=O)O (H-KEEKEINDEY-OH; N-terminus assumed) | > 1000 |  |
| CC[C@H](C)[C@H](NC(=O)[C@@H](NC(=O)[C@@H](NC(=O)[C@H](Cc1c[nH]cn1)NC(=O)[C@H](CC(=O)O)NC(=O)[C@H](CCCCN)NC(=O)[C@H](CCCCN)NC(=O)[C@H](CCC(=O)O)NC(=O)[C@@H](N)CCCCN)[C@@H](C)CC)C(C)C)C(=O)O (H-KEKKDHIVI-OH) | 64.6 |  |
| CC[C@H](C)[C@H](NC(=O)[C@H](CCC(=O)O)NC(=O)[C@H](CC(N)=O)NC(=O)[C@H](CC(C)C)NC(=O)[C@H](CC(C)C)NC(=O)[C@@H]1CCCN1C(=O)[C@@H]1CCCN1C(=O)[C@H](CC(C)C)NC(=O)[C@@H](N)CCCCN)C(=O)O (H-KLPPLLNEI-OH) |  | IC50 (HLA A*0201): 2.66 µM; IC50 (HLA A*2402): 0.0887 µM |
| CC[C@H](C)[C@H](NC(=O)[C@@H]1CCCN1C(=O)[C@H](Cc1ccc(O)cc1)NC(=O)[C@H](CCC(N)=O)NC(=O)[C@H](CC(=O)O)NC(=O)[C@H](CO)NC(=O)[C@H](CCCCN)NC(=O)[C@H](CCSC)NC(=O)[C@@H](N)CCCCN)C(=O)O (H-KMKSDQYPI-OH) |  | IC50 (HLA A*0201): 3.07 µM; IC50 (HLA A*2402): 6.9 µM |
| CC[C@H](C)[C@H](NC(=O)[C@H](Cc1ccccc1)NC(=O)[C@H](CCC(=O)O)NC(=O)[C@@H](NC(=O)[C@H](CC(=O)O)NC(=O)[C@H](CCC(=O)O)NC(=O)[C@H](CC(N)=O)NC(=O)[C@H](CCC(=O)O)NC(=O)[C@@H](N)CCSC)C(C)C)C(=O)O (H-MENEDVEFI-OH) | 36.9 |  |
| CC[C@H](C)[C@H](NC(=O)[C@H](CCC(=O)O)NC(=O)[C@H](CCC(=O)O)NC(=O)[C@@H](N)CC(N)=O)C(=O)N[C@H](C(=O)N[C@@H](CC(=O)O)C(=O)N[C@@H](CC(C)C)C(=O)N[C@@H](CC(C)C)C(=O)N[C@@H](CC(N)=O)C(=O)N[C@@H](CC(C)C)C(=O)O)[C@@H](C)CC (H-NEEIIDLLNL-OH) | 433 |  |
| C[C@@H](O)[C@H](NC(=O)[C@H](CC(N)=O)NC(=O)[C@H](CC(N)=O)NC(=O)[C@H](CCC(=O)O)NC(=O)[C@@H](N)CC(N)=O)C(=O)N[C@H](C(=O)N[C@@H](Cc1ccc(O)cc1)C(=O)N[C@@H](CCC(N)=O)C(=O)N[C@@H](Cc1ccc(O)cc1)C(=O)O)[C@@H](C)O (H-NENNTTYQY-OH) | 18.4 |  |
| CC(C)C[C@H](NC(=O)[C@H](Cc1ccccc1)NC(=O)[C@H](CO)NC(=O)[C@H](Cc1ccccc1)NC(=O)[C@H](CS)NC(=O)[C@H](Cc1ccccc1)NC(=O)[C@H](CC(C)C)NC(=O)[C@H](CC(N)=O)NC(=O)[C@H](CC(C)C)NC(=O)[C@@H](N)CCCNC(=N)N)C(=O)O (H-RLNLFCFSFL-OH) | 421 | IC50 (HLA A*0201): 161 µM; IC50 (HLA A*0301): 6.12 µM |
| C[C@@H](O)[C@H](NC(=O)[C@H](CC(N)=O)NC(=O)[C@H](Cc1ccc(O)cc1)NC(=O)[C@@H](NC(=O)[C@H](CO)NC(=O)[C@@H](NC(=O)[C@H](CO)NC(=O)[C@H](CCC(=O)O)NC(=O)[C@@H](N)CO)[C@@H](C)O)[C@@H](C)O)C(=O)O (H-SESTSTYNT-OH) | 103 |  |
| CC[C@H](C)[C@H](NC(=O)[C@H](CC(C)C)NC(=O)[C@@H](NC(=O)[C@@H](N)CO)[C@@H](C)CC)C(=O)N[C@@H](CO)C(=O)N[C@@H](CCCNC(=N)N)C(=O)N[C@@H](CC(C)C)C(=O)N[C@H](C(=O)N[C@@H](CC(C)C)C(=O)O)[C@@H](C)O (H-SILISRLTL-OH; N-terminus assumed) | > 1000 |  |
| CC(C)C[C@H](NC(=O)[C@H](Cc1ccccc1)NC(=O)[C@@H]1CCCN1C(=O)[C@H](Cc1c[nH]cn1)NC(=O)[C@H](CCCCN)NC(=O)[C@@H](N)CO)C(=O)N[C@@H](CCCCN)C(=O)N[C@@H](CO)C(=O)NCC(=O)N[C@@H](Cc1ccccc1)C(=O)O (H-SKHPFLKSGF-OH; N-terminus assumed) | > 1000 |  |
| CSCC[C@H](NC(=O)[C@H](CC(N)=O)NC(=O)[C@H](CCCCN)NC(=O)[C@H](CC(N)=O)NC(=O)[C@H](CCCCN)NC(=O)[C@H](Cc1ccccc1)NC(=O)[C@H](Cc1ccc(O)cc1)NC(=O)[C@H](CCC(=O)O)NC(=O)[C@@H](N)[C@@H](C)O)C(=O)O (H-TEYFKNKNM-OH) | 31.4 |  |
| CC[C@H](C)[C@H](NC(=O)[C@H](CCCCN)NC(=O)CNC(=O)CNC(=O)[C@H](CC(C)C)NC(=O)[C@H](CCC(N)=O)NC(=O)[C@H](CO)NC(=O)[C@H](CCC(=O)O)NC(=O)[C@@H](N)Cc1ccc(O)cc1)C(=O)O (H-YESQLGGKI-OH) | 66.3 |  |
| CC[C@H](C)[C@H](NC(=O)[C@H](Cc1ccc(O)cc1)NC(=O)[C@@H]1CCCN1C(=O)[C@@H]1CCCN1C(=O)[C@H](CC(C)C)NC(=O)CNC(=O)[C@@H](NC(=O)[C@@H](NC(=O)[C@@H](N)Cc1ccc(O)cc1)[C@@H](C)O)[C@@H](C)CC)C(=O)O (H-YTIGLPPYI-OH) |  | IC50 (HLA A*0201): 2.46 µM; IC50 (HLA A*2402): 6.57 µM |
| CC[C@H](C)[C@H](NC(=O)[C@@H](NC(=O)[C@@H]1CCCN1C(=O)[C@H](Cc1ccc(O)cc1)NC(=O)[C@@H](N)Cc1ccc(O)cc1)[C@@H](C)CC)C(=O)N[C@@H](CCCNC(=N)N)C(=O)N[C@@H](CCCCN)C(=O)N[C@@H](CCC(N)=O)C(=O)N[C@@H](Cc1ccccc1)C(=O)O (H-YYPIIRKQF-OH) |  | IC50 (HLA A*2402): 0.101 µM |
